Data on 26 compounds can be found in PubChem BioAssay (NCI).

Molecules are shown by their SMILES. Where “and” joins values, the source holds several entries; their conditions need not be identical. Equal values may be shown once.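 Dose response: 5 concentrations. Exposure: 48 h. Format: 96-well plates. Endpoint: linear interpolation; highest concentration if not reached. The concentration for 50% growth inhibition is given as GI50. The concentration for full growth arrest is given as TGI.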

Common to all, as to experiment: NCI tumour cell line growth inhibition, 48 h
For assay [1], the system named is SF-268 CNS.
In assay [2] the test system is HCC-2998 colon.
Assay [3] relates to LOX IMVI melanoma.
In assay [4] the test system is OVCAR-8 ovarian.
The test system of assay [5] is HCT-116 colon.
Assay [6] concerns SW-620 colon.
Assay [7] concerns SF-539 CNS.
For assay [8], the system named is HOP-92 NSCLC.
In assay [9] the test system is BT-549 breast.
In assay [10] the test system is MCF7 breast.

On to `CCC(C)SC1SCC2C(=O)N(C)C3(CC3C)C(=O)OCC(NC(=O)c3nc4ccccc4cc3O)C(=O)NC(C)C(=O)N(C)C1C(=O)N(C)C1(CC1C)C(=O)OCC(NC(=O)c1nc3ccccc3cc1O)C(=O)NC(C)C(=O)N2C` (stereo not given), for which the TGI in assay [1] was 0.00516 µM; in assay [2] it was 0.000369 µM; in assay [3], 0.000122 µM; in assay [4] it was 0.0133 µM; in [6], 0.00439 µM and < 0.034 µM; in [7], 0.000317 µM. The TGI in assay [8] came out at 0.000585 µM; in assay [9], 0.000693 µM. Also, the GI50 in [5] was 0.0288 nM.

Consider `Cc1ccc(NC2=C3CCCCC3OC2=O)cc1` (stereo not given), for which the GI50 in [1] was greater than 100 µM; in [2], greater than 100 µM; in [4], 78.4 µM; in [10], 20.5 µM; in [5], 66100 nM; in assay [6] it was greater than 100 µM. For the same compound, the GI50 in assay [7] and in assay [9] was greater than 100 µM in each case. Also, the TGI in assay [1], in assay [2], in [4], in assay [10], in assay [5] and in assay [6] was greater than 100 µM throughout. The TGI in assay [7] and in assay [9] was greater than 100 µM each time.

`O=c1c2cccnc2ncn1CCN1CCCCC1`: the TGI in [1], in assay [2], in [3], in assay [4], in assay [5] and in [6] was greater than 100 µM in each case. For the same compound, the TGI in assay [7] and in [8] was greater than 100 µM in each case.

`COc1cc2c(cc1O)[C@H](C)C(c1ccc(OC)c(OC)c1)O2` (stereo not given in full): the TGI is greater than 100 µM in assay [1]; greater than 100 µM in assay [2]; 16 µM in [3]; 35.1 µM in assay [4]; 15.1 µM in assay [5]; 19.4 µM in assay [6]. The TGI in assay [7] turned out to be 38.6 µM; in assay [8], 23.1 µM.

For `C=C1C(=O)O[C@H]2[C@H]1CC/C(CNC(=O)c1cc3ccccc3[nH]1)=C\CC[C@@]1(C)O[C@@H]21`, the GI50 in assay [1] is 1.6 µM; in [2], 1.85 µM; in assay [3] it was 0.58 µM; in assay [4], 2.08 µM; in [5] it was 1000 nM; in [6], 0.523 µM. Also, the GI50 was 1.61 µM in assay [7], 1.57 µM in [8] and 1.69 µM in [9]. Further, the TGI was 3.67 µM in [1]; 3.38 µM in assay [2]; 1.99 µM in assay [3]; 5.87 µM in [4]; 2.21 µM in assay [5]; 2.01 µM in [6]. Further, the values for the TGI in assay [7], in [8] and in assay [9] were 3.16 µM, 3.46 µM and 3.34 µM, respectively.

As for `CN(C)CC1CCC/C1=N/OC(=O)c1ccccc1` (stereo not given), the TGI in assay [1], in assay [2], in assay [3], in assay [4], in assay [5] and in [6] was greater than 100 µM each time. Moreover, the TGI in [7] and in assay [8] was greater than 100 µM in each case.

For `O=S1C(=c2ccc(=C3Sc4ccccc4S3)cc2)Sc2ccccc21` (stereo not given), the TGI in assay [1] is 37.3 µM; in assay [2], 30.3 µM; in [3] it was 32.2 µM; in assay [4], 34.4 µM; in assay [5] it was greater than 56.6 µM; in [6] it was greater than 100 µM. Also, the figures for the TGI in [7] and in assay [8] were 30.5 µM and greater than 100 µM, respectively.

As for `CCOC(=O)/C(=C/c1ccc(OC)cc1)N(CC)CC`, the TGI in [1], in assay [2], in assay [3], in assay [4], in assay [5] and in assay [6] was greater than 100 µM each time. Further, the TGI in assay [7] and in assay [8] was greater than 100 µM in each case.

Regarding `COC1=CC(=O)C(C2(OC(C)C)OC(=O)C(Cl)=C2Cl)=CC1=O` (stereo not given), the TGI in [1] was greater than 100 µM; in assay [2] it was greater than 100 µM; in assay [3], greater than 100 µM; in assay [4], 78.8 µM; in assay [10], greater than 100 µM; in assay [5] it was greater than 100 µM. Further, the TGI in [6], in assay [7] and in assay [8] was greater than 100 µM each time.

As to `O=C(/C=C/c1c(O)ccc2ccccc12)c1ccc([N+](=O)[O-])cc1`, the TGI in assay [1] was greater than 100 µM; in assay [2] it was greater than 100 µM; in assay [3], 33.4 µM; in [4], greater than 61.6 µM; in assay [5], 37.4 µM; in [6], greater than 57.6 µM. Also, the values for the TGI in assay [7] and in assay [8] were greater than 90.8 µM and 30.9 µM, respectively.

`CCOC(=O)C(=[N+]=[N-])C(=O)CN1C(=O)c2ccccc2C1=O`: the TGI in [1], in assay [2], in [4], in assay [10], in [5] and in [6] was greater than 100 µM throughout. The TGI in assay [7], in [8] and in assay [9] was greater than 100 µM each time.

As for `CNC(=O)NCCCC(NC(C)=O)C(=O)NCc1ccccc1` (stereo not given), the TGI in assay [1], in [2], in assay [3], in assay [4], in [5] and in [6] was greater than 100 µM in each case. For the same compound, the TGI in assay [7] and in assay [8] was greater than 100 µM each time.

For `Cc1ccc(S(=O)(=O)N2CCC2c2ccccc2)cc1` (stereo not given), the TGI in assay [1], in assay [2], in assay [3], in assay [4], in assay [5] and in [6] was greater than 100 µM in each case. Further, the TGI in assay [7] was greater than 100 µM; in [8] it was 78.8 µM.

As for `C[C@@]1(O)CC[C@]2(C)C3CCCC3[C@H]12` (stereo not given in full), the TGI in assay [1], in assay [2], in assay [3], in [4], in assay [5] and in assay [6] was greater than 100 µM each time. For the same compound, the TGI in assay [7] and in [8] was greater than 100 µM throughout.

As to `CN(C)CC1CCCC/C1=N/O` (stereo not given), the TGI in assay [1], in assay [2], in [3], in [4], in assay [5] and in assay [6] was greater than 100 µM throughout. Also, the TGI in assay [7] and in [8] was greater than 100 µM each time.

As for `CCCC/C=C/C=C/C=C/CCCCCCCC(=O)OCC(COC(=O)CCCCCCC/C=C/C1C=CC(CCCC)C(C(=O)O)C1C(=O)O)OC(=O)CCCCCCC/C=C/C=C/C=C/CCCC` (stereo not given) (tested in a mixture with another compound), the TGI in assay [1] worked out at 36.1 µM; in assay [2], 40.7 µM; in assay [3], 27.5 µM; in assay [4], 44.5 µM; in assay [5], 30.7 µM; in assay [6], 18 µM. In addition, the TGI in [7] was determined as 39.1 µM; in assay [8], 48.1 µM.

Consider `O=C(NC1C=CCC2C(=O)N(c3ccccc3)C(=O)C12)OCc1ccccc1` (stereo not given), for which the TGI in assay [1], in [2], in assay [3], in assay [4], in [5] and in assay [6] was greater than 100 µM throughout. Besides, the TGI in [7] and in assay [8] was greater than 100 µM each time.

With `O=C(Nc1nc(=S)[nH][nH]1)C(=O)C(C(=O)c1ccc2ccccc2c1)C1OC(=O)c2ccccc21` (stereo not given), the TGI was greater than 100 µM in assay [1]; 24 µM in assay [2]; 39 µM in assay [3]; 94.4 µM in assay [4]; 27.6 µM in assay [5]; greater than 100 µM in assay [6]. Besides, the results for the TGI in assay [7] and in assay [8] were 25.2 µM and 73.7 µM, respectively.

As to `Clc1ccc2cccc3c2c1C1OC3c2ccccc21` (stereo not given), the TGI in assay [1], in [2], in assay [3], in assay [4], in assay [5] and in assay [6] was greater than 100 µM in each case. The TGI in assay [7] and in [8] was greater than 100 µM each time.

On to `O=C1OCC2=C1C(c1cccc(Br)c1)c1cc3c(cc1N2CCO)OCCO3` (stereo not given), for which the GI50 is 0.0766 µM in assay [1]; 0.0927 µM in [2]; 0.107 µM in [3]; 0.12 µM in assay [4]; 0.103 µM in assay [10]; 59.5 nM in assay [5]. For the same compound, the GI50 in assay [6] is 0.0527 µM; in [7], 0.051 µM; in assay [9], 0.136 µM. Besides, the TGI in [1] is 8.38 µM; in assay [2], 1.71 µM; in [3], 9.28 µM; in assay [4], 1.54 µM; in assay [10], greater than 50 µM; in assay [5], 2.07 µM. Further, the TGI in assay [6] was greater than 27.9 µM; in [7] it was 0.46 µM; in assay [9], 6.35 µM.

Take `Cc1[cH-]c(=O)n(-c2ccccc2)n1.[Au+].[Au].c1ccc([PH+](c2ccccc2)c2ccccc2)cc1.c1ccc([PH+](c2ccccc2)c2ccccc2)cc1`: the GI50 is 7.14 µM in assay [1]; greater than 100 µM in [2]; 18 µM in [3]; 14.6 µM in assay [4]; 20200 nM in assay [5]; 26.9 µM in [6]. Besides, the GI50 in [7] is 2.38 µM and 10.4 µM; in assay [8] it was 2.79 µM. For the same compound, the TGI in [1] is 31.9 µM; in assay [2], greater than 100 µM; in assay [3] it was 46.8 µM; in [4], 41.5 µM; in assay [5], 38.9 µM; in [6], 81.4 µM. Further, the TGI stood at 33.4 µM in [7] and 7.77 µM in [8].

`O=C(O)CSc1n[nH]c(-c2ccccc2O)n1`: the TGI in assay [1], in assay [2], in assay [3], in assay [4], in [5] and in [6] was greater than 100 µM each time. For the same compound, the TGI in [7] and in assay [8] was greater than 100 µM in each case.

Consider `CCOC(=O)C1Sc2ccccc2N=C1C` (stereo not given), for which the TGI in assay [1], in [2], in assay [3], in assay [4], in assay [5] and in assay [6] was greater than 100 µM throughout. Moreover, the TGI in assay [7] and in assay [8] was greater than 100 µM throughout.

Turning to `Cn1cc(-c2cc3c(N4CCN(c5ncc([C@@](C)(N)c6ccc(F)cc6)cn5)CC4)ncnn3c2)cn1`, the GI50 in [2] is 4.23 µM; in assay [3] it was 3.27 µM; in assay [4], 4.11 µM; in assay [10], 2.56 µM; in assay [5], 3150 nM; in assay [7], 1.6 µM. Further, the GI50 in [9] was 5.15 µM. The TGI in assay [2], in assay [3], in [4], in assay [10], in assay [5] and in assay [7] was greater than 100 µM throughout. The compound further displayed a TGI in assay [9] greater than 100 µM.

Turning to `Cc1nc(-c2nc(C)c(C(=O)NNC(=O)C[n+]3ccccc3)s2)sc1C(=O)NNC(=O)C[n+]1ccccc1`, the TGI in assay [1], in [2], in assay [3], in [4], in assay [5] and in assay [6] was greater than 100 µM in each case. Further, the TGI in assay [7] and in assay [8] was greater than 100 µM throughout.

`Cc1ccc(-c2nc(N3CCNCC3)c3oc(-c4ccc(C)cc4)nc3n2)cc1`: the GI50 was 2.25 µM in assay [1]; 3.61 µM in [2]; 1.88 µM in [3]; 2.13 µM in assay [4]; 1.66 µM in assay [10]; 1.8 µM in [6]. In addition, the GI50 in [8] was 11.5 µM; in assay [9], 5.39 µM. The TGI in assay [1] came to 5.61 µM; in assay [3], 3.46 µM; in [4] it was 4.63 µM; in [10], 3.53 µM; in [6], 4.02 µM; in assay [8] it was 26.5 µM. The compound further registered a TGI in assay [9] of 11.2 µM.
